Laboratory results: PubChem BioAssay (NCI)
“And” between values parts separate entries of the source, which are not always exact repeats. Identical values can stand only once.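 1) Cells in 96-well plates. 2) Compound, 48 h, 5 concentrations. 3) Linear interpolation between surrounding doses. 4) Unreached endpoint = highest concentration. Abbreviation: GI50, concentration required for 50% inhibition of growth. TGI marks complete inhibition of growth.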

Experiments:
Test in all cases: NCI-60 cell line screen, 48 h
CCRF-CEM leukemia = test system: CCRF-CEM leukemia
RXF 393 renal = test system: RXF 393 renal
HOP-62 NSCLC = test system: HOP-62 NSCLC
OVCAR-5 ovarian = test system: OVCAR-5 ovarian
UACC-62 melanoma = test system: UACC-62 melanoma
A549 NSCLC = test system: A549 NSCLC
U251 CNS = test system: U251 CNS
HCC-2998 colon = test system: HCC-2998 colon
HL-60(TB) leukemia = test system: HL-60(TB) leukemia
OVCAR-4 ovarian = test system: OVCAR-4 ovarian

| SMILES | TGI (CCRF-CEM leukemia) [µM] | TGI (RXF 393 renal) [µM] | TGI (HOP-62 NSCLC) [µM] | TGI (OVCAR-5 ovarian) | TGI (UACC-62 melanoma) [µM] | TGI (A549 NSCLC) | TGI (U251 CNS) [µM] | TGI (HCC-2998 colon) | TGI (HL-60(TB) leukemia) [µM] | TGI (OVCAR-4 ovarian) [µM] | GI50 (RXF 393 renal) [µM] | GI50 (HOP-62 NSCLC) [µM] | GI50 (OVCAR-5 ovarian) [µM] | GI50 (UACC-62 melanoma) [µM] | GI50 (A549 NSCLC) [µM] | GI50 (OVCAR-4 ovarian) [µM] | GI50 (U251 CNS) [µM] | GI50 (HCC-2998 colon) [µM] | GI50 (HL-60(TB) leukemia) [µM] | GI50 (CCRF-CEM leukemia) [µM] |
| --- | --- | --- | --- | --- | --- | --- | --- | --- | --- | --- | --- | --- | --- | --- | --- | --- | --- | --- | --- | --- |
| C1=C(c2ccccc2)CN(c2ccccc2)OC1 | > 100 | > 100 | > 100 | > 100 µM | > 100 | > 100 µM | > 100 | > 100 µM | > 100 | – | – | – | – | – | – | – | – | – | – | – |
| O=C(O)CSCc1cccc2ccccc12 | > 100 | > 100 | > 100 | > 100 µM | > 100 | > 100 µM | > 100 | – | > 100 | > 100 | – | – | – | – | – | – | – | – | – | – |
| CCC[CH2][Sn]([CH2]CCC)([O]C(=O)c1c(F)cccc1F)[O]C(=O)c1c(F)cccc1F | – | 0.844 | 3.69 | 2.61 µM | 2.1 | 11 µM | 1.6 | 2.41 µM | > 100 | 2.55 | 0.242 | 2.22 | 1.34 | 0.884 | 3.12 | 1.28 | 0.443 | 1.18 | 0.378 | – |
| NNC(=S)N/N=C(\CCCC(=O)NCCc1ccccc1)CC(=O)c1ccccc1 | – | > 100 | > 100 | > 100 µM | > 100 | > 100 µM | > 100 | > 100 µM | > 100 | > 100 | – | – | – | – | – | – | – | – | – | – |
| CC1=NN(C(=O)c2ccccc2O)C(=O)/C1=C/c1ccc([N+](=O)[O-])cc1 | – | – | – | > 100 µM | 2.16 | > 100 µM | > 100 | – | – | > 100 | 0.263 | – | 2.62 | – | 0.357 | 0.783 | 0.516 | – | 1.08 | 0.259 |
| COc1ccc(S(=O)(=O)NC(C)C(=O)O)cc1 (stereo unspecified) | > 100 | > 100 | – | > 100 µM | > 100 | > 100 µM | > 100 | – | > 100 | > 100 | – | – | – | – | – | – | – | – | – | – |
| COc1ccc(/C=C2\CN(C)Cc3c2nc(N)nc3-c2ccc(OC)cc2)cc1 | > 100 | > 100 | > 100 | > 100 µM | > 100 | > 100 µM | > 100 | > 100 µM | 85.2 | – | – | – | – | – | – | – | – | – | – | – |
| C#CCC[C@@H]1O[C@@]1(C)CC/C=C(\C)CC/C=C/C=O | 64.8 | > 100 | > 100 | > 100 µM | 36.6 | > 100 µM | 39.3 | – | 60.8 | – | – | – | – | – | – | – | – | – | – | – |
| COc1cc(CCc2cccnc2)cc(OC)c1OC | > 100 | > 100 | > 100 | > 100 µM | > 100 | > 100 µM | > 100 | – | > 100 | > 100 | – | – | – | – | – | – | – | – | – | – |
| COC(=O)Cc1cc(OC)c(OC)cc1Br | > 100 | – | > 100 | > 100 µM | > 100 | > 100 µM | > 100 | > 100 µM | > 100 | > 100 | – | – | – | – | – | – | – | – | – | – |
| O=C1OC(=O)c2c1c(-c1ccccc1)cn2-c1ccc(Cl)cc1 | > 100 | – | > 100 | > 100 µM | – | > 100 µM | > 100 | > 100 µM | > 100 | – | – | – | – | – | – | – | – | – | – | – |
| CN1C(=O)c2c(ccc3c2OCO3)C2C(O)Cc3cc4c(cc3C21)OCO4 (stereo unspecified) | 9.74 | – | – | > 100 µM | > 100 | > 100 µM | > 100 | 64.4 µM | 6.3 | > 100 | – | – | – | – | – | – | – | – | – | – |
| [O-]/[N+](=C\c1ccccc1)[C@H](COCc1ccccc1)c1ccccc1 | > 100 | > 100 | > 100 | > 100 µM | – | > 100 µM | > 100 | > 100 µM | 62.1 | – | – | – | – | – | – | – | – | – | – | – |
| CCSc1nnc2c(-c3ccccc3)n[nH]c2n1 | > 100 | > 100 | > 100 | > 100 µM | > 100 | > 100 µM | > 100 | – | > 100 | > 100 | – | – | – | – | – | – | – | – | – | – |
| N=C(c1ccccc1)N(c1ccccc1)c1ccccc1 | – | > 100 | > 100 | > 100 µM | – | > 100 µM | > 100 | > 100 µM | > 100 | > 100 | – | – | – | – | – | – | – | – | – | – |
| CC1=C([Se]CC(OC(=O)[C@@H](CSSC(C)(C)C)NC(=O)OC(C)(C)C)C(=O)NC(C)(C)C)C(=O)c2ccccc2C1=O (stereo partly specified) | – | 2.82 | 2.81 | 3.24 µM | 2.84 | 2.66 µM | 1.94 | 3.1 µM | 1.23 | 2.87 | 1.5 | 0.762 | 1.73 | 1.51 | 1.28 | 1.49 | 0.675 | 1.54 | 0.255 | – |
| COc1cc(C(=O)OCCCCCCCCCCC[P+](c2ccccc2)(c2ccccc2)c2ccccc2)ccc1O | 2.52 | – | – | 3.25 µM | 2.44 | – | – | 1.92 µM | 0.734 | – | – | – | 1.59 | 0.768 | – | – | – | 0.57 | 0.282 | 0.434 |
| CCC(C)CN1C(=O)NC(C)(Cc2ccccc2)C1=O (stereo unspecified) | – | > 100 | > 100 | > 100 µM | – | > 100 µM | > 100 | > 100 µM | > 100 | – | – | – | – | – | – | – | – | – | – | – |
| CC1[C@@H]2[C@@H](C=C3C4CCC5Cc6nc7c(nc6C[C@@]5(C)C4C[C@H](O)[C@]32CO)CC2CCC3C4=C[C@H]5O[C@@]6(O[C@@](C)(CO)C[C@@H]6O)C(C)[C@@]5(O)[C@]4(C)[C@@H](O)CC3[C@]2(C)C7)O[C@]12CCC(C)(C)O2 (stereo partly specified) | – | – | – | 0.961 µM and 0.108 µM | 0.0745 | 0.919 µM and > 3.65 µM | 0.0664 | 0.39 µM and > 3.65 µM | 0.496 | – | < 0.000365 | < 0.000365 | 0.00878 | 0.00489 | 0.00602 | – | < 0.000365 | 1.34 | – | 0.000474 |
| CCN(CC)CCNC(=O)c1ccccc1NC(=O)C(=O)Nc1ccccc1C(=O)NCCN(CC)CC | 71.9 | – | > 100 | > 100 µM | > 100 | > 100 µM | > 100 | > 100 µM | 32.4 | > 100 | – | – | – | – | – | – | – | – | – | – |
| O=C1c2ccccc2C2(O)Nc3cc(O)ccc3C12O (stereo unspecified) | > 100 | > 100 | > 100 | > 100 µM | > 100 | > 100 µM | > 100 | – | > 100 | > 100 | – | – | – | – | – | – | – | – | – | – |
| CCOc1ccc(NC(=O)CC2SC(=Nc3ccc(Cl)cc3)NC2=O)cc1 (stereo unspecified) | 43.5 | > 100 | > 100 | > 100 µM | > 100 | > 100 µM | – | > 100 µM | 75.4 | > 100 | – | – | – | – | – | – | – | – | – | – |
